In patent US7879115B2, “Method for using a static electric field to induce crystallization and to control crystal form” (Intellectual Ventures Holding 19, LLC, priority 2004, dated 2011):
Like-named read-outs stand apart in the source and are kept apart here.

Tests used:
[1] = Static (DC) electric field induced nucleation of aged supersaturated aqueous solutions; polymorph by x-ray powder diffraction; type: physicochemical; details: for timescale on which macroscopic crystals form: supersaturated aqueous solution subjected to static electric field; for percent of the exposed solutions that nucleated within the 10-minute exposure time: 6×10^5 V/m DC field, γ glycine
Description: Great care was taken to exclude dust from samples. Supersaturated solutions were generated by heating the tubes to 62-64° C. and holding them at that temperature in an ultrasonicator overnight.
A chamber was constructed consisting of two brass electrodes separated by a 5 mm insulating gap, with a hole drilled down through the center, parallel to the gap-electrode interface, with a diameter large enough to accommodate the test tube, to create a high voltage chamber. Test tubes containing the aged solutions were placed in the high voltage chamber.
A DC voltage was applied across the electrodes, large enough to produce electric fields in the range of 400,000 to 800,000 V/m. Tests tubes containing the aged solutions were placed in the high-voltage chamber. […] If crystals formed in the test tubes, the crystals were removed from the solution and dried. The structure of these crystals was analyzed by grinding up the crystal into a powder and obtaining an x-ray powder diffraction pattern.
(§1) The supersaturated solutions were in the concentration range of 5.5 to 6.0 molal. […] These solutions had supersaturations (SS) ranging from 1.85 to 2.0; SS=c/csat, where csat is the saturation concentration.
Solutions were aged for 2 to 5 weeks and exposed to a 6×10^5 V/m DC field for 10 minutes. Semi-cylindrical electrodes were constructed from a 5 cm×5 cm×5.5 cm block of brass, with the center drilled out so that the sample tubes would fit snugly, and then split in half and material removed to create a 5 mm gap, as shown in FIG. 1. […] All sharp edges were rounded in the actual electrodes. The electrodes are insulated and held firmly in position by Delrin plates, screwed together to make a covered box, with 5 mm thick spacers to hold the cylindrical electrodes at the proper spacing. There are two long narrow gaps in the insulation, matching the electrode gap 20, so that most of the length of the sample tube is visible from either side, and there is a small hole in the bottom insulating plate, with a mount for an optical fiber. A Glassman EH regulated power supply provided 0-15 kV DC.
A low power monitoring continuous-wave laser beam at a wavelength of 532 nm, defocused in one direction with a cylindrical lens to generate a pencil-shaped beam, was directed through the electrode gap 20 and illuminated the length of the sample tube. The transmitted light was imaged on white paper. Light scattered perpendicular to the beam was collected with an optical fiber attached at the bottom of the cell and monitored with a power meter.
(§2) Crystals formed in the test tubes were removed from the solution and dried. The structure of these crystals was analyzed by grinding up the crystal into a powder and obtaining an x-ray powder diffraction pattern.

[2] = room temperature, approximately 20° C., water; cited from earlier work
[3] = average charge on a glycine molecule is zero; cited from earlier work
[4] = supersaturated aqueous solutions
Excerpt: Such species, when subjected to a DC electric field, will tend to migrate toward the electrode with the opposite charge, effectively increasing the supersaturation near the electrode, which in itself can be responsible for inducing nucleation.

[5] = Description: as §1, §2
Towler, C. S. et al., Journal of the American Chemical Society, Vol. 126, pp. 13347-13353 (2004).

C[C@H](N)C(=O)O [L-alanine]
timescale on which macroscopic crystals form [1]: minutes

NCC(=O)O [glycine]
saturation concentration csat [2]: 3.0 molal | isoelectric point (pH) [3]: 6.0 | percent of the exposed solutions that nucleated within the 10-minute exposure time ([1]; 1.85 SS, after 16 days aging): 24% | percent of the exposed solutions that nucleated within the 10-minute exposure time ([1]; 1.9-2.0 SS, after 14 days aging): 33% | percent of the exposed solutions that nucleated within the 10-minute exposure time ([1]; 1.9-2.0 SS, after 36 days aging): 40% | % samples mixed α + γ ([1]; SS 1.85, DC field): 0% | % samples pure α ([1]; SS 1.85, DC field): 50% | % samples pure γ ([1]; SS 1.85, DC field): 50% | % samples mixed α + γ ([1]; SS 1.9–2.0, DC field): 0% | % samples pure α ([1]; SS 1.9–2.0, DC field): 0% | % samples pure γ ([1]; SS 1.9–2.0, DC field): 100% | time until crystallization observed ([1]; electric field strength 600,000 V/m): 30 to 90 min | induction of nucleation by field exposure ([1]; field of 400,000 V/m, aged solutions): not sufficient to induce nucleation | timescale on which macroscopic crystals form [1]: hours | pH of aqueous glycine solutions exposed to DC fields [4]: 6.4-6.5 | Spontaneous nucleation rate for a ten-minute time window ([5]; 1.85 SS, no field): 0.02% | % samples mixed α + γ ([5]; SS 1.85, Spontaneous): 0% | % samples pure α ([5]; SS 1.85, Spontaneous): 86% | % samples pure γ ([5]; SS 1.85, Spontaneous): 14% | % samples mixed α + γ ([5]; SS 1.9–2.0, Spontaneous): 27% | % samples pure α ([5]; SS 1.9–2.0, Spontaneous): 13% | % samples pure γ ([5]; SS 1.9–2.0, Spontaneous): 60%
